Data from the supplement of paper PMC11281043.

Columns and labels:
[1] = tested on: Danio rerio embryo/larva; experiment: BMC mortality; max tested concentration (log10 uM): 2; higher = less potent; conditions: exposure: 6-8 hpf to 5 dpf, scored at 6 dpf
Description: (§1)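 Zebrafish embryos (with chorion) were exposed from 6-8 hpf to each PFAS (8-point half-log series, top concentration up to 100 uM, 0.4% DMSO, sealed plates, 26 C; n = 6 embryos per concentration), rinsed at 5 dpf and scored at 6 dpf by two blinded observers for mortality, hatching and malformations. Endpoint scores are the % of living larvae affected (dead larvae excluded; […]). Curves were fitted with tcpl (cutoff 16%), and the BMC is the concentration at a benchmark response of 21.6%.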

[2] = tested on: Danio rerio embryo/larva; experiment: BMC any abnormality; max tested concentration (log10 uM): 2; higher = less potent; conditions: exposure: 6-8 hpf to 5 dpf, scored at 6 dpf
Description: as §1

[3] = tested on: Danio rerio embryo/larva; experiment: max % larvae with any abnormality across tested concentrations; max tested concentration (log10 uM): 2; higher = more toxic; extreme values may be limits of the assay; conditions: exposure: 6-8 hpf to 5 dpf, scored at 6 dpf
[4] = tested on: Danio rerio embryo/larva; experiment: max % larvae unhatched across tested concentrations; max tested concentration (log10 uM): 2; higher = more toxic; conditions: exposure: 6-8 hpf to 5 dpf, scored at 6 dpf
[5] = tested on: Danio rerio embryo/larva; experiment: max % larvae dead across tested concentrations; max tested concentration (log10 uM): 2; higher = more toxic; extreme values may be limits of the assay; conditions: exposure: 6-8 hpf to 5 dpf, scored at 6 dpf
[6] = tested on: Danio rerio embryo/larva; experiment: max % larvae with any abnormality across tested concentrations; max tested concentration (log10 uM): 1.60206; higher = more toxic; extreme values may be limits of the assay; conditions: exposure: 6-8 hpf to 5 dpf, scored at 6 dpf
[7] = tested on: Danio rerio embryo/larva; experiment: max % larvae unhatched across tested concentrations; max tested concentration (log10 uM): 1.60206; higher = more toxic; conditions: exposure: 6-8 hpf to 5 dpf, scored at 6 dpf
[8] = tested on: Danio rerio embryo/larva; experiment: max % larvae dead across tested concentrations; max tested concentration (log10 uM): 1.60206; higher = more toxic; extreme values may be limits of the assay; conditions: exposure: 6-8 hpf to 5 dpf, scored at 6 dpf
[9] = tested on: Danio rerio embryo/larva; experiment: BMC edema; higher = less potent; conditions: exposure: 6-8 hpf to 5 dpf, scored at 6 dpf
Description: as §1

[10] = tested on: Danio rerio embryo/larva; experiment: BMC swim bladder non-inflation; higher = less potent; conditions: exposure: 6-8 hpf to 5 dpf, scored at 6 dpf
Description: as §1

[11] = tested on: Danio rerio embryo/larva; experiment: BMC craniofacial defects; higher = less potent; conditions: max tested concentration (log10 uM): 2; exposure: 6-8 hpf to 5 dpf, scored at 6 dpf
Description: as §1

[12] = tested on: Danio rerio embryo/larva; experiment: BMC abnormal position; higher = less potent; conditions: exposure: 6-8 hpf to 5 dpf, scored at 6 dpf
Description: as §1

[13] = max tested concentration (log10 uM): 1
[14] = max tested concentration (log10 uM): 2
[15] = max tested concentration (log10 uM): 1.47712

Row | SMILES | BMC mortality [1] | BMC any abnormality [2] | max % larvae [3] | max % larvae unhatched across tested concentrations [4] | max % larvae dead across tested concentrations [5] | also measured
1 | C[N+](C)(C)CCCNS(=O)(=O)C(F)(F)C(F)(F)C(F)(F)C(F)(F)C(F)(F)C(F)(F)C(F)(F)C(F)(F)F | 19.8 µM | 22.3 µM | 100% | 0% | 100% | –
2 | CCCCCCCCC(F)(F)C(F)(F)C(F)(F)C(F)(F)C(F)(F)C(F)(F)F [1-(Perfluorohexyl)octane] | – | – | – | – | – | max % larvae [6]: 0%; max % larvae unhatched across tested concentrations [7]: 0%; max % larvae dead across tested concentrations [8]: 0%
3 | FC(F)(F)C(F)(F)C(F)(F)C(F)(F)C(F)(F)C(F)(F)C(F)(F)CCI [1-Iodo-1H,1H,2H,2H-perfluorononane] | – | – | – | – | – | max % larvae [6]: 16.7%; max % larvae unhatched across tested concentrations [7]: 0%; max % larvae dead across tested concentrations [8]: 16.7%
4 | C=CC(=O)OCC(F)(F)C(F)(F)C(F)(F)COC(=O)C=C [1H,1H,5H,5H-Perfluoro-1,5-pentanediol diacrylate] | 8.77 µM | 7.62 µM | 100% | 0% | 100% | –
5 | C=CC(=O)OCC(F)(F)C(F)(F)C(F)(F)C(F)(F)COC(=O)C=C [1H,1H,6H,6H-Perfluorohexane-1,6-diol diacrylate] | 8.28 µM | 1.52 µM | 100% | 0% | 100% | BMC edema [9, 13]: 8.94 µM; BMC swim bladder non-inflation [10, 13]: 2.81 µM
6 | OCC(F)(F)C(F)(F)C(F)(F)C(F)(F)C(F)(F)C(F)(F)CO [1H,1H,8H,8H-Perfluorooctane-1,8-diol] | – | 41.3 µM | 91.7% | 0% | 0% | BMC edema [9, 14]: 50.7 µM; BMC craniofacial defects [11]: 91 µM; BMC swim bladder non-inflation [10, 14]: 10.4 µM
7 | OCC(F)(F)C(F)(F)C(F)(F)C(F)(F)C(F)(F)C(F)(F)C(F)(F)C(F)(F)CO [1H,1H,10H,10H-Perfluorodecane-1,10-diol] | 19.5 µM | 4.08 µM | 100% | 0% | 100% | BMC swim bladder non-inflation [10, 13]: 3.47 µM
8 | FC(F)(F)C(F)(F)C(F)(F)C(F)(F)C(F)(F)C(F)(F)CCS [2-(Perfluorohexyl)ethanethiol] | – | – | – | – | – | max % larvae [6]: 16.7%; max % larvae unhatched across tested concentrations [7]: 0%; max % larvae dead across tested concentrations [8]: 0%
9 | OCCC(F)(F)C(F)(F)C(F)(F)C(F)(F)C(F)(F)C(F)(F)F [2-(Perfluorohexyl)ethanol] | – | 10.4 µM | 89.6% | 0% | 8.33% | BMC edema [9, 14]: 3.37 µM; BMC craniofacial defects [11]: 27.9 µM; BMC swim bladder non-inflation [10, 14]: 26.2 µM
10 | OCCC(F)(F)C(F)(F)C(F)(F)C(F)(F)C(F)(F)C(F)(F)C(F)(F)C(F)(F)F [2-(Perfluorooctyl)ethanol] | 89 µM | – | 58.3% | 0% | 25% | –
11 | FC(F)(F)C(F)(F)C(F)(F)C(F)(F)C(F)(F)C(F)(F)C(F)(F)C(F)(F)CCS [2-(Perfluorooctyl)ethanthiol] | – | – | – | – | – | max % larvae [6]: 10.4%; max % larvae unhatched across tested concentrations [7]: 0%; max % larvae dead across tested concentrations [8]: 0%
12 | O=C(O)CCC(F)(F)C(F)(F)C(F)(F)C(F)(F)C(F)(F)F [2H,2H,3H,3H-Perfluorooctanoic acid] | 24.8 µM | 8.77 µM | 100% | 0% | 100% | BMC edema [9, 15]: 9.38 µM; BMC abnormal position [12, 15]: 12.2 µM; BMC swim bladder non-inflation [10, 15]: 9.28 µM
13 | O=C(O)CCC(F)(F)C(F)(F)C(F)(F)C(F)(F)C(F)(F)C(F)(F)F [3-(Perfluorohexyl)propanoic acid] | 19.5 µM | 8.2 µM | 100% | 0% | 100% | BMC edema [9, 13]: 9.01 µM
14 | OCCCCC(F)(F)C(F)(F)C(F)(F)C(F)(F)F [4:4 Fluorotelomer alcohol] | 86.5 µM | 25.5 µM | 97.9% | 0% | 41.7% | BMC edema [9, 14]: 25.8 µM; BMC craniofacial defects [11]: 34.7 µM; BMC swim bladder non-inflation [10, 14]: 27.1 µM
15 | O=C(O)C(F)(F)C(F)(F)C(F)(F)C(F)(F)C(F)(F)C(F)(F)C(F)(F)C(F)(F)Cl [9-Chloro-perfluorononanoic acid] | 31.1 µM | 8.75 µM | 100% | 0% | 100% | BMC edema [9, 14]: 17.5 µM; BMC craniofacial defects [11]: 31.1 µM; BMC abnormal position [12, 14]: 80.3 µM; BMC swim bladder non-inflation [10, 14]: 6.38 µM
16 | O=C(O)C(F)(F)C(F)(F)C(F)(F)C(F)(F)C(F)(F)C(F)(F)C(F)(F)C(F)(F)C(F)(F)C(F)F [11-H-Perfluoroundecanoic acid] | 11.2 µM | 12.9 µM | 100% | 0% | 100% | BMC edema [9, 15]: 12.6 µM
17 | O=P(O)(O)CCC(F)(F)C(F)(F)C(F)(F)C(F)(F)C(F)(F)C(F)(F)C(F)(F)C(F)(F)F [((Perfluorooctyl)ethyl)phosphonic acid] | 10.4 µM | 0.578 µM | 100% | 0% | 100% | BMC edema [9, 14]: 1.37 µM; BMC abnormal position [12, 14]: 63.6 µM; BMC swim bladder non-inflation [10, 14]: 0.92 µM
